Results from PubChem BioAssay AID2060503 (Molecular Pharmacology Branch, DTP, NCI, 2025).

Test system: 817829-284-R-J1-PDC complex spheroids, viability
Experiment: Anticancer human tumor 817829-284-R-J1-PDC patient-derived colon adenocarcinoma cell line growth inhibition [GQUAD]
Settings: for IC50: curve of first compound; for viability, T/C: stronger effect = lower value
Text: DNA G-quadruplex Stabilizer Agents in Combinations in Complex Spheroids
A high-throughput screen of multi-cell type tumor spheroids was designed to identify active combinations of DNA G-quadruplex stabilizer agents and targeted small molecules. Complex spheroids include a stromal component modeled by human endothelial cells (HUVEC) and fibroblasts modeled by human mesenchymal stem cells (MSCs). The concentration ranges selected for each drug and investigational agent were based upon clinically achievable concentrations if the clinical Cmax of the agent was known.
Compounds. The drugs and investigational agents: pidnarulex (CX-5461; NSC782164), APTO-253 (NSC789042), BRACO-19 (NSC847499), peposertib (NSC802822), ceralasertib (NSC780249), elimusertib (NSC800525), camonsertib (NSC841442), AZD-1390 (NSC803789), olaparib (NSC753686), talazoparib (NSC767125), ART-558 (NSC835418), sotorasib (NSC818433), MRTX-1133 (NSC836407), SN-38 (NSC673596), topotecan (NSC609699), etoposide (NSC141540), doxorubicin (NSC123127), gemcitabine (NSC613327), 5-fluorouracil (NSC19893), paclitaxel (NSC125973), vemurafenib (NSC761431), panobinostat (NSC761190), R-306465 (JNJ-16241199; NSC773264), adavosertib (NSC754352), TP-3654 (NSC805149), carboplatin (NSC241240), KSQ-4279 (NSC840948), and staurosporine (NSC755774) were obtained from the National Cancer Institute (NCI) Developmental Therapeutics Program Chemical Repository (34). The FDA-approved anticancer drug set is available from the NCI Developmental Therapeutics Program. […] The stock solutions were prepared in dimethyl sulfoxide (DMSO, Sigma-Aldrich, St. Louis, MO, cat. D2650) at 800-fold the tested concentration and stored at -70 degrees C prior to their use. All drugs and investigational agents were tested over a range starting from a high concentration at or near the clinical Cmax and decreasing in half-log increments. If the clinical Cmax for an agent had not been determined, the highest concentration tested was 10 microM.
2.3 Cell Culture. All cells were maintained in an incubator at 37 degrees C and 5% CO2 with 95% humidity. The PDC lines were cultured according to standard operating procedures established by the NCI PDMR. All PDCs were thawed and cultured in Matrigel-coated flasks prepared with a working solution of 1X Ham's F-12 nutrient mix, without supplementation (Invitrogen, cat. 11765054), 100 U/mL penicillin-streptomycin (Invitrogen, cat. 15140122), and 2.5% Matrigel (Corning Inc., cat. 354248) for the first three passages. The 857933-349-R-J2-PDC line was cultured in 6C/Colon 1B media, which includes advanced DMEM/F-12 (Thermo Fisher Scientific, cat. 12634028), 10 mM HEPES (Thermo Fisher Scientific, cat. 15630080), 1X GlutaMAX supplement (Thermo Fisher Scientific, cat. 35050061), 0.1 mg/mL primocin (InvivoGen, cat. ant-pm-2), 10% defined fetal bovine serum, heat inactivated (HyClone Laboratories Inc., cat. SH30070.03HI), 50% L-WRN conditioned media (ATCC, cat. CRL-3276), 1.25 mM N-Acetyl-L-cysteine (Sigma-Aldrich, cat. A9165), 10 mM nicotinamide (Sigma-Aldrich, cat. N0636), 1X B-27 supplement (Thermo Fisher Scientific, cat. 17504044), 1X N-2 supplement (Thermo Fisher Scientific, cat. 17502048), 10 microM Y-27632 dihydrochloride (Tocris Bioscience, cat. 1254), and 50 ng/mL human EGF recombinant protein (Thermo Fisher Scientific, cat. PHG0311). The 485176-168-R4-J1-PDC line was cultured in Panc media, which includes all 6C/Colon 1B media components plus 100 ng/mL human FGF-10 (Thermo Fisher Scientific, cat. 100-26), 500 nM SB-431542 (Selleckchem, cat. S1067), and gastrin (Tocris, cat. 3006).
[…]

[1] = second compound 0.0316 µM, first compound 0.0316 µM
[2] = second compound 0.0316 µM, first compound 0.1 µM
[3] = second compound 0.0316 µM, first compound 0.316 µM
[4] = second compound 0.0316 µM, first compound 1 µM
[5] = second compound 0.0316 µM, first compound 3.16 µM
[6] = second compound 0.0316 µM, first compound 10 µM
[7] = second compound 0.1 µM, first compound 0.0316 µM
[8] = second compound 0.1 µM, first compound 0.1 µM
[9] = second compound 0.1 µM, first compound 0.316 µM
[10] = second compound 0.1 µM, first compound 1 µM
[11] = second compound 0.1 µM, first compound 3.16 µM
[12] = second compound 0.1 µM, first compound 10 µM
[13] = second compound 0.316 µM, first compound 0.0316 µM
[14] = second compound 0.316 µM, first compound 0.1 µM
[15] = second compound 0.316 µM, first compound 0.316 µM
[16] = second compound 0.316 µM, first compound 1 µM
[17] = second compound 0.316 µM, first compound 3.16 µM
[18] = second compound 0.316 µM, first compound 10 µM
[19] = second compound 1 µM, first compound 0.0316 µM
[20] = second compound 1 µM, first compound 0.1 µM
[21] = second compound 1 µM, first compound 0.316 µM
[22] = second compound 1 µM, first compound 1 µM
[23] = second compound 1 µM, first compound 3.16 µM
[24] = second compound 1 µM, first compound 10 µM
[25] = second compound 3.16 µM, first compound 0.0316 µM
[26] = second compound 3.16 µM, first compound 0.1 µM
[27] = second compound 3.16 µM, first compound 0.316 µM
[28] = second compound 3.16 µM, first compound 1 µM
[29] = second compound 3.16 µM, first compound 3.16 µM
[30] = second compound 3.16 µM, first compound 10 µM
[31] = second compound 10 µM, first compound 0.0316 µM
[32] = second compound 10 µM, first compound 0.1 µM
[33] = second compound 10 µM, first compound 0.316 µM
[34] = second compound 10 µM, first compound 1 µM
[35] = second compound 10 µM, first compound 3.16 µM
[36] = second compound 10 µM, first compound 10 µM
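Note: spheroids exposed to agents for 7 days before readout.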
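Throughout, for viability, T/C: percent viability relative to DMSO vehicle control taken as 100%.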

With `CC1COCCN1c1cc(-c2ccnn2C)c2ccnc(-c3ccn[nH]3)c2n1` (centres undefined) + Cc1[nH]c2ccc(F)cc2c1-c1nc2c3cccnc3c3ncccc3c2[nH]1 the IC50 (second compound 0.0316 µM) was 48.7 nM, the IC50 (second compound 0.1 µM) was less than 31.6 nM and the IC50 (second compound 0.316 µM) was less than 31.6 nM. For the same compound, the IC50 (second compound 1 µM) was less than 31.6 nM, the IC50 (second compound 3.16 µM) was less than 31.6 nM and the IC50 (second compound 10 µM) was less than 31.6 nM. It also gave a viability, T/C [1] of 72.5%, a viability, T/C [2] of 12.9% and a viability, T/C [3] of 9.49%. The viability, T/C [4] was 4.92%, the viability, T/C [5] was 6.02% and the viability, T/C [6] was 4.47%. The viability, T/C [7] was 46.3%, the viability, T/C [8] was 19.1% and the viability, T/C [9] was 8.08%. It also gave a viability, T/C [10] of 6.91%, a viability, T/C [11] of 5.94% and a viability, T/C [12] of 4.22%. For the same compound, the viability, T/C [13] was 48.6%, the viability, T/C [14] was 19.7% and the viability, T/C [15] was 9.27%. For the same compound, the viability, T/C [16] was 7.38%, the viability, T/C [17] was 5.29% and the viability, T/C [18] was 4.46%. The viability, T/C [19] was 38.1%, the viability, T/C [20] was 19.6% and the viability, T/C [21] was 7.66%. The viability, T/C [22] was 6.25%, the viability, T/C [23] was 5.62% and the viability, T/C [24] was 4.21%. For the same compound, the viability, T/C [25] was 35.8%, the viability, T/C [26] was 8.61% and the viability, T/C [27] was 5.3%. It also gave a viability, T/C [28] of 3.85%, a viability, T/C [29] of 3.53% and a viability, T/C [30] of 3.13%. The viability, T/C [31] was 28.2%, the viability, T/C [32] was 4.74% and the viability, T/C [33] was 3.18%. The viability, T/C [34] was 3.81%, the viability, T/C [35] was 2.63% and the viability, T/C [36] was 2.34%.
`COc1cccc2c1C(=O)c1c(O)c3c(c(O)c1C2=O)CC(O)(C(=O)CO)CC3OC1CC(N)C(O)C(C)O1` (centres undefined) + Cc1cnc(CNC(=O)c2c(=O)c3ccc(N4CCCN(C)CC4)nc3n3c2sc2ccccc23)cn1 was tested, and the IC50 (second compound 0.0316 µM) was less than 31.6 nM, the IC50 (second compound 0.1 µM) was less than 31.6 nM and the IC50 (second compound 0.316 µM) was less than 31.6 nM. For the same compound, the IC50 (second compound 1 µM) was less than 31.6 nM, the IC50 (second compound 3.16 µM) was less than 31.6 nM and the IC50 (second compound 10 µM) was less than 31.6 nM. For the same compound, the viability, T/C [1] was 50.1%, the viability, T/C [2] was 28.6% and the viability, T/C [3] was 25.7%. For the same compound, the viability, T/C [4] was 7.54%, the viability, T/C [5] was 0.23% and the viability, T/C [6] was 0.16%. The viability, T/C [7] was 27.2%, the viability, T/C [8] was 26.8% and the viability, T/C [9] was 17.2%. It also gave a viability, T/C [10] of 9.6%, a viability, T/C [11] of 0.27% and a viability, T/C [12] of 0.19%. For the same compound, the viability, T/C [13] was 21.8%, the viability, T/C [14] was 24.4% and the viability, T/C [15] was 18.2%. The viability, T/C [16] was 6.76%, the viability, T/C [17] was 0.15% and the viability, T/C [18] was 0.22%. It also gave a viability, T/C [19] of 19.9%, a viability, T/C [20] of 21.5% and a viability, T/C [21] of 18.9%. For the same compound, the viability, T/C [22] was 8.23%, the viability, T/C [23] was 0.07% and the viability, T/C [24] was 0.08%. For the same compound, the viability, T/C [25] was 17.8%, the viability, T/C [26] was 16.4% and the viability, T/C [27] was 13.9%. It also gave a viability, T/C [28] of 7.35%, a viability, T/C [29] of 0.11% and a viability, T/C [30] of 0.11%. For the same compound, the viability, T/C [31] was 0.07%, the viability, T/C [32] was 0.12% and the viability, T/C [33] was 0.16%. For the same compound, the viability, T/C [34] was 0.12%, the viability, T/C [35] was 0.19% and the viability, T/C [36] was 0.18%.
